In general, half-life refers to the time in which the quantity being followed falls by half. High values mean slow decline, low ones rapid decline. For orientation: pEC50 means −log10 of the EC50, conventionally taken in molar units. A high value points to a small EC50. What is called CC50 is the concentration giving 50% cytotoxicity.

Data set [1] can be described thus: Half-life at initial concentration of 5*10e-5 M in CEM cell extract. Type of data set: ADME, CCRF-CEM. The conditions noted are these: human.
Data set [2] relates to CCRF-CEM. Put plainly: Compound was evaluated for anti-HIV activity against thymidine kinase deficient CEM cell line infected with HIV-1. The note with it: Homo sapiens. Type of data set: functional, cell-based.
In data set [3] the test system is CCRF-CEM. Briefly: Compound was evaluated for cytotoxicity against thymidine kinase deficient CEM cell line infected with HIV-1. Type of data set: functional. The conditions noted are these: Homo sapiens.

The structures appear in SMILES notation. pEC50: −log10 of the molar value.

In data set [1], `COC(=O)CCNP(=O)(OCC1OC(n2cc(C)c(=O)[nH]c2=O)CC1N=[N+]=[N-])Oc1ccccc1` (centres undefined) gave a half-life above 8 h. In the data set with CCRF-CEM [2], the pEC50 was below 4.00. The same compound yielded a CC50 in the data set on CCRF-CEM [3] above 100 µM.

As to `COC(=O)CNP(=O)(OCC1OC(n2cc(C)c(=O)[nH]c2=O)CC1N=[N+]=[N-])Oc1ccccc1` (centres undefined), the half-life in data set [1] was 21 h. The compound also showed a pEC50 with CCRF-CEM [2] of 4.20. The compound also gave a CC50 in the data set on CCRF-CEM [3] above 100 µM.

The compound `Cc1cn([C@H]2C[C@H](N=[N+]=[N-])[C@@H](CO)O2)c(=O)[nH]c1=O` [ZIDOVUDINE] showed a pEC50 with CCRF-CEM [2] below 4.00. Also, the CC50 with CCRF-CEM [3] was above 100 µM.

As for `CC(=O)OCCNP(=O)(OCC1OC(n2cc(C)c(=O)[nH]c2=O)CC1N=[N+]=[N-])Oc1ccccc1` (centres undefined), the half-life in data set [1] is 1.5 h. Besides, the pEC50 in the data set on CCRF-CEM [2] is below 5.00. Further, the CC50 in the data set with CCRF-CEM [3] is above 10 µM.

In data set [1], `COC(=O)[C@H](C)NP(=O)(OC[C@H]1O[C@@H](n2cc(C)c(=O)[nH]c2=O)C[C@@H]1N=[N+]=[N-])Oc1ccccc1` (some centres undefined) showed a half-life of 2.5 h. The compound also showed a pEC50 with CCRF-CEM [2] of 5.39. In the data set with CCRF-CEM [3], this compound yielded a CC50 of 97 µM.

These data come from ChEMBL document CHEMBL1130803, “Anti-HIV pronucleotides: decomposition pathways and correlation with biological activities” (Bioorg Med Chem Lett, 1998).
